In general, solubility refers to how much of the substance goes into solution per volume.

In brackets after ≈: the same amount, converted by molar mass.

The nature of this series: solubility of acetaminophen in recrystallisation solvent (50% water and 50% methanol). Format: physicochemical. The following applies: aqueous with cosolvent or surfactant or cyclodextrin; solvent mixture of 50% water and 50% methanol by volume, heated to near boiling. As to the method:
Heat the reaction mixture at about 115° C. with stirring for about 10 minutes to complete the reaction. Once complete, cool the mixture thoroughly in an ice bath for 15-20 minutes and collect the crystals by vacuum filtration on a Hirsch funnel. To decolorize the crude product, dissolve 0.2 g of sodium dithionite (sodium hydrosulfite) in 1.5 mL of water in a 5-mL conical vial. Add the crude acetaminophen to the vial. Heat the mixture at about 100° C. for 15 minutes, with occasional stirring. Cool the mixture to precipitate the decolorized acetaminophen. To purify the decolorized product, dissolve the material in a solvent mixture composed of 50% water and 50% methanol by volume, heated to boiling. The solubility of acetaminophen in the near-boiling solvent is about 0.2 g/mL. Cool the solution to precipitate the acetaminophen.

As for `CC(=O)Nc1ccc(O)cc1` [acetaminophen, N-acetyl-p-aminophenol], the solubility is approximately 200 mg/mL (≈ 1320 mM).

(Values after patent publication US10286504B2, “Synthesis of paracetamol (acetaminophen) from biomass-derived p-hydroxybenzamide” (Wisconsin Alumni Research Foundation, priority 2017, dated 2019).)
